Experimental data as given in PMC11228576 (RSC Advances, 2024).
Like-named read-outs stand apart in the source and are kept apart here.

Assays:
[1] = target: T1, bovine erythrocyte CA-II (Bos taurus, UniProt P00921); assay: CA-II in vitro inhibition assay; type: biochemical; details: for Percent inhibition (0.5 mM): compound at 0.5 mM; for inhibition at 500 µM: read-out: Percent inhibition (0.5 mM)
[2] = target: T1, bovine erythrocyte CA-II; assay: Enzyme kinetics study of CA-II inhibition; type: biochemical
[3] = read-out: IC50 ± μM (SEM), bovine CA-II, triplicate, SEM

T1 sequence (P00921 whole entry): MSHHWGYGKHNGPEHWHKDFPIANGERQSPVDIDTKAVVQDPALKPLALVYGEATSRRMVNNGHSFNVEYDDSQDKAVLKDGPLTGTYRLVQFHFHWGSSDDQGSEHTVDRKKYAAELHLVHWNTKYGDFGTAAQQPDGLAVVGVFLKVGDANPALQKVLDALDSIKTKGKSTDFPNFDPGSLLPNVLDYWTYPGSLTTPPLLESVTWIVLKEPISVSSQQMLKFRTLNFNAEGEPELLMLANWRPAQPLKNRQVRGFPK

SMILES | Percent inhibition (0.5 mM) ([1]; bovine CA-II) [%] | IC50 [1, 3] [µM] | IC50 [1] [µM] | inhibition at 500 µM [1] [%] | Ki [2] [µM] | type of inhibition ([2]; bovine CA-II, Lineweaver–Burk plot)
C(=N\N=c1\scc(-c2ccccc2)n1-c1cccc2ccccc12)/c1ccc(N2CCOCC2)cc1 [Compound 10, 4-{4-[(E)-{[(E)-3-(naphthalen-1-yl)-4-phenylthiazol-2(3H)-ylidene] hydrazone}methyl]phenyl} morpholine] | 80.20 | 39.7 ± 1.41 | – | – | – | –
Clc1ccc(-c2cs/c(=N/N=C/c3ccc(N4CCOCC4)cc3)n2CCN2CCOCC2)cc1 [Compound 17, 4-{2-[(E)-2-{[(E)-4-morpholinobenzylidene]hydrazineylidene}-4-(4-chlorophenyl)thiazol-3(2H)-yl]ethyl}morpholine] | – | – | 51.2 ± 1.26 | 71.2 | – | –
C(=N\N=c1\scc(-c2ccccc2)n1CCN1CCOCC1)/c1ccc(N2CCOCC2)cc1 [Compound 7, 4-{2-[(E)-2-{[(E)-4-morpholinobenzylidene]hydrazineylidene}-4-phenylthiazol-3(2H)-yl]ethyl}morpholine] | – | – | 37.2 ± 1.37 | 80.9 | – | –
Cc1ccc(Cn2c(-c3ccc(Cl)cc3)cs/c2=N/N=C/c2ccc(N3CCOCC3)cc2)cc1 [Compound 16, 4-{4-[(E)-{[(E)-4-(4-chlorophenyl)-3-(4-methylbenzyl)thiazol-2(3H)-ylidene]hydrazone}methyl]phenyl}morpholine] | 70.20 | 56.3 ± 1.4 | – | – | – | –
O=[N+]([O-])c1ccc(-c2cs/c(=N/N=C/c3ccc(N4CCOCC4)cc3)n2CCN2CCOCC2)cc1 [Compound 24, 4-{2-[(E)-2-{[(E)-4-morpholinobenzylidene]hydrazineylidene}-4-(4-nitrophenyl)thiazol-3(2H)-yl]ethyl}morpholine] | – | – | 14.7 ± 0.29 | 90.2 | 9.64 ± 0.007 | competitive type of inhibition
Clc1ccc(-c2cs/c(=N/N=C/c3ccc(N4CCOCC4)cc3)n2CCc2ccccc2)cc1 [Compound 15, 4-{4-[(E)-{[(E)-4-(4-chlorophenyl)-3-phenethylthiazol-2(3H)-ylidene]hydrazone}methyl]phenyl}morpholine] | 75.36 | 49.3 ± 1.35 | – | – | – | –
COc1ccc(-n2c(-c3ccc(Cl)cc3)cs/c2=N/N=C/c2ccc(N3CCOCC3)cc2)cc1 [Compound 19, 4-{4-[(E)-{[(E)-4-(4-chlorophenyl)-3-(4-methoxyphenyl)thiazol-2(3H)-ylidene] hydrazone}methyl]phenyl}morpholine] | 70.35 | 48.2 ± 1.19 | – | – | – | –

Results, then the compound that gave them:

Percent inhibition (0.5 mM) ([1]; bovine CA-II) [%] | IC50 [1, 3] [µM] | IC50 [1] [µM] | inhibition at 500 µM [1] [%] | Ki [2] [µM] | type of inhibition ([2]; bovine CA-II, Lineweaver–Burk plot) | SMILES
88.69 | 16.5 ± 0.4 | – | – | – | – | COc1ccc(-n2c(-c3ccc([N+](=O)[O-])cc3)cs/c2=N/N=C/c2ccc(N3CCOCC3)cc2)cc1 [Compound 25, 4-{4-[(E)-{[(E)-3-(4-methoxyphenyl)-4-(4-nitrophenyl)thiazol-2(3H)-ylidene]hydrazone}methyl]phenyl}morpholine]
84.29 | 34.6 ± 1.1 | – | – | – | – | C(=N\N=c1\scc(-c2ccccc2)n1CCc1ccccc1)/c1ccc(N2CCOCC2)cc1 [Compound 6, 4-{4-[(E)-{[(E)-3-phenethyl-4-phenylthiazol-2(3H)-ylidene]hydrazone}methyl]phenyl} morpholine]
83.11 | 27.4 ± 0.47 | – | – | – | – | O=[N+]([O-])c1cccc(-n2c(-c3ccccc3)cs/c2=N/N=C/c2ccc(N3CCOCC3)cc2)c1 [Compound 8, 4-{4-[(E)-{[(E)-3-(3-nitrophenyl)-4-phenylthiazol-2(3H)-ylidene] hydrazone}methyl]phenyl} morpholine]
89.76 | 17.2 ± 0.36 | – | – | – | – | Cc1cccc(C)c1-n1c(-c2ccc([N+](=O)[O-])cc2)cs/c1=N/N=C/c1ccc(N2CCOCC2)cc1 [Compound 26, 4-{4-[(E)-{[(E)-3-(2,6-dimethylphenyl)-4-(4-nitrophenyl)thiazol-2(3H)ylidene] hydrazone}methyl]phenyl}morpholine]
81.46 | 38.6 ± 0.48 | – | – | – | – | Cc1cccc(C)c1-n1c(-c2ccc(Cl)cc2)cs/c1=N/N=C/c1ccc(N2CCOCC2)cc1 [Compound 21, 4-{4-[(E)-{[(E)-4-(4-chlorophenyl)-3-(2,6-dimethylphenyl)thiazol-2(3H)-ylidene]hydrazone}methyl]phenyl}morpholine]
84.95 | 23.8 ± 0.44 | – | – | – | – | Brc1ccc(-c2cs/c(=N/N=C/c3ccc(N4CCOCC4)cc3)n2-c2ccccc2)cc1 [Compound 27, 4-{4-[(E)-{[(E)-4-(4-bromophenyl)-3-phenylthiazol-2(3H)-ylidene]hydrazone}methyl]phenyl}morpholine]
80.69 | 35.4 ± 0.64 | – | – | – | – | Clc1ccc(-c2cs/c(=N/N=C/c3ccc(N4CCOCC4)cc3)n2Cc2ccccc2)cc1 [Compound 14, 4-{4-[(E)-{[(E)-3-benzyl-4-(4-chlorophenyl)thiazol-2(3H)-ylidene]hydrazone}methyl]phenyl}morpholine]
86.61 | 26.5 ± 0.68 | – | – | – | – | C(=N\N=c1\scc(-c2ccccc2)n1Cc1ccccc1)/c1ccc(N2CCOCC2)cc1 [Compound 5, 4-{4-[(E)-{[(E)-3-benzyl-4-phenylthiazol-2(3H)-ylidene] hydrazone}methyl]phenyl} morpholine]
86.44 | 30.2 ± 0.59 | – | – | – | – | C(=N\N=c1\scc(-c2ccccc2)n1C1CCCCC1)/c1ccc(N2CCOCC2)cc1 [Compound 3, 4-{4-[(E)-{[(E)-3-cyclohexyl-4-phenylthiazol-2(3H)-ylidene]hydrazone}methyl]phenyl} morpholine]
